Values of other authors, collected in the PKSmart pharmacokinetics tables (Seal et al. 2025).

Assay: not given per row; by the article one of three: Lombardo et al. 2013, J Clin Pharmacol 53:178, doi 10.1177/0091270012440282; 'New Drugs at FDA', novel drug approvals for 2021 and 2022 (the article's reference 43); Yap, Li, Chen 2006, J Mol Graph Model 24:383, doi 10.1016
Conditions: human; in vivo

| Structure (SMILES) | clearance | Vd | half-life |
| --- | --- | --- | --- |
| CNC[C@@H](O)c1cccc(O)c1 | 29.9 mL/min/kg |  |  |
| C=CC(=O)Nc1cc(Nc2ncc(C(=O)OC(C)C)c(-c3cn(C)c4ccccc34)n2)c(OC)cc1N(C)CCN(C)C | 38.3 mL/min/kg | 58.5 L/kg | 1080 min |
| CCN1CCCC1CNC(=O)c1c(OC)ccc(Br)c1OC (configuration not stated) | 1.7 mL/min/kg |  |  |
| CN1CCN2c3ncccc3Cc3ccccc3[C@@H]2C1 | 8.25 mL/min/kg |  |  |
| CCOC(=O)C(Cc1ccc(F)cc1)NC(=O)C(N)Cc1ccc(N(CCCl)CCCl)cc1 (configuration not stated) | 192 mL/min/kg | 0.58 L/kg | 2.4 min |
| COc1ccc(C(=O)Nc2ccccc2CC[C@@H]2CCCCN2C)cc1 | 177 mL/min/kg |  |  |
| NC(=O)N1c2ccccc2C=Cc2ccccc21 | 1.11 mL/min/kg |  |  |
| CCCN(CC)C(CC)C(=O)Nc1c(C)cccc1C (configuration not stated) | 15.9 mL/min/kg |  |  |
| CCN1CCN(c2ccc(Nc3cc(N(C)C(=O)Nc4c(Cl)c(OC)cc(OC)c4Cl)ncn3)cc2)CC1 | 9.19 mL/min/kg | 26.7 L/kg | 2010 min |
| CNCc1cc(-c2ccccc2F)n(S(=O)(=O)c2cccnc2)c1 | 22.6 mL/min/kg | 13 L/kg | 408 min |
| Cc1ccc2nc(N)[nH]c(=O)c2c1Sc1ccncc1 | 2.36 mL/min/kg |  |  |
| CC1=C(/C=C/C(C)=C/C=C/C(C)=C/C(=O)Nc2ccc(O)cc2)C(C)(C)CCC1 | 23.5 mL/min/kg |  |  |
| CCCC(NC(C)C(=O)N1C(C(=O)O)C[C@@H]2CCCC[C@H]21)C(=O)OCC (some centres not stated) | 6.19 mL/min/kg |  |  |
| CCCCCOC(=O)Nc1nc(=O)n([C@@H]2O[C@H](C)[C@@H](O)[C@H]2O)cc1F | 59.7 mL/min/kg |  |  |
| Cc1cc(C=CC#N)cc(C)c1Nc1ccnc(Nc2ccc(C#N)cc2)n1 |  | 2.71 L/kg | 2670 min |
| CCCCC1(CCCC)CN(c2ccccc2)c2cc(SC)c(OCC(=O)NC(C(=O)NC(CC)C(=O)O)c3ccc(O)cc3)cc2S(=O)(=O)N1 (configuration not stated) |  |  | 142 min |
| CCOCCn1c(N2CCCN(C)CC2)nc2ccccc21 | 12.5 mL/min/kg |  |  |
| Nc1nc(F)nc2c1ncn2[C@@H]1O[C@@H](COP(=O)(O)O)[C@@H](O)[C@@H]1O | 3.7 mL/min/kg |  |  |
| CC(C)NC[C@@H](O)COc1ccc(CCOCC2CC2)cc1 | 4.7 mL/min/kg |  |  |
| CON=C(C(=O)NC1C(=O)N2C(C(=O)O)=C(C)CS[C@@H]12)c1csc(N)n1 (some centres not stated) | 2 mL/min/kg |  |  |
| Oc1ccc2c3c1O[C@@H]1[C@@H](O)CC[C@]4(O)[C@H](C2)N(CC2CCC2)CC[C@@]314 | 29.7 mL/min/kg |  |  |

| Structure (SMILES) | clearance | Vd | half-life |
| --- | --- | --- | --- |
| CC[C@H](CO)NCCN[C@@H](CC)CO | 8.05 mL/min/kg |  |  |
| CN[C@H](C)[C@H](O)c1ccccc1 | 7.33 mL/min/kg |  |  |
| CC(=O)N(C[C@H](O)CO)c1c(I)c(C(=O)NCCO)c(I)c(C(=O)NC[C@H](O)CO)c1I | 1.44 mL/min/kg |  |  |
| CCOC(=O)NNc1ccc(N(CC)C[C@@H](C)O)nn1 | 3.79 mL/min/kg |  |  |
| NC[C@H]1O[C@@H](O[C@H]2C(O)[C@@H](O[C@H]3O[C@@H](CO)[C@H](O)[C@@H](N)[C@@H]3O)[C@H](N)C[C@@H]2N)[C@H](N)C[C@@H]1O (some centres not stated) | 1.35 mL/min/kg |  |  |
| CN[C@H]1CC[C@H](c2ccc(Cl)c(Cl)c2)c2ccccc21 | 38 mL/min/kg |  |  |
| CCC[C@H]1CC(C(=O)N[C@@H]([C@H]2O[C@@H](SC)[C@H](O)[C@@H](O)[C@@H]2O)[C@H](C)O)N(C)C1 (some centres not stated) | 1.98 mL/min/kg |  |  |
| CC(C)N(CC[C@@](C(N)=O)(c1ccccc1)c1ccccn1)C(C)C | 2.7 mL/min/kg |  |  |
| CC(=O)OCC1=C(C(=O)O)N2C(=O)C(NC(=O)Cc3cccs3)[C@@H]2SC1 (some centres not stated) | 6.7 mL/min/kg |  |  |
| CC(C)NC[C@@H](O)COc1cccc2ccccc12 | 13.7 mL/min/kg |  |  |
| C=C[C@H](N)CCC(=O)O | 0.74 mL/min/kg |  |  |
| CCCC[C@@H]1CC(=O)[C@]2(O)O[C@H]3[C@@H](NC)[C@@H](O)[C@@H](NC)[C@H](O)[C@@H]3O[C@@H]2O1 | 1.9 mL/min/kg |  |  |
| C[C@@H](CCc1ccc(O)cc1)NCCc1ccc(O)c(O)c1 | 59 mL/min/kg |  |  |
| C=C1C[C@@H]2C(CC[C@]3(C)C(=O)CC[C@@H]23)[C@]2(C)C=CC(=O)C=C12 (some centres not stated) | 145 mL/min/kg |  |  |
| CCOC(=O)Nc1c[n+](N2CCOCC2)no1 | 9.52 mL/min/kg |  |  |
| C=C/C=C/C[C@@H](C)[C@@H](O)C1C(=O)NC(CC)C(=O)N(C)CC(=O)N(C)C(CC(C)C)C(=O)NC(C(C)C)C(=O)N(C)C(CC(C)C)C(=O)NC(C)C(=O)NC(C)C(=O)N(C)C(CC(C)C)C(=O)N(C)C(CC(C)C)C(=O)N(C)C(C(C)C)C(=O)N1C (some centres not stated) | 17.7 mL/min/kg | 35.9 L/kg | 1800 min |
| Cc1ccc(-c2cc(C(F)(F)F)nn2-c2ccc(S(N)(=O)=O)cc2)cc1 | 7.59 mL/min/kg |  |  |
| O=C(O)CCC(NC(=O)NC(CCCCNC(=O)c1ccc([18F])nc1)C(=O)O)C(=O)O (configuration not stated) |  |  | 208 min |
| C=CCc1ccccc1OC[C@H](O)CNC(C)C | 6.47 mL/min/kg |  |  |
| C[C@H](CN1CCN(CCOCCO)CC1)CN1c2ccccc2Sc2ccccc21 | 17.5 mL/min/kg |  |  |

Same assay, conditions: human; plasma

| Structure (SMILES) | fraction unbound |
| --- | --- |
| Cc1ccc(NC(=O)C2CCCN(C(=O)c3c(C)cccc3F)[C@H]2c2ccc(NC3CCCC3)cc2)cc1C(F)(F)F (some centres not stated) | 0.01 |
| C1=C/COCc2cc(ccc2OCCN2CCCC2)Nc2nccc(n2)-c2cccc(c2)COC/1 | 0.01 |
| CCCCC1(CCCC)CS(=O)(=O)c2ccc(N(C)C)cc2[C@@H](c2ccc(OCc3ccc(C[N+]45CCN(CC4)CC5)cc3)cc2)[C@H]1O | 0.09 |
| CN1CCC(COc2cnc(-c3cccc(Cn4nc(-c5cccc(C#N)c5)ccc4=O)c3)nc2)CC1 | 0.02 |
| C=CC(=O)Nc1cc(Nc2ncc(C(=O)OC(C)C)c(-c3cn(C)c4ccccc34)n2)c(OC)cc1N(C)CCN(C)C | 0.01 |
| CCN1CCN(c2ccc(Nc3cc(N(C)C(=O)Nc4c(Cl)c(OC)cc(OC)c4Cl)ncn3)cc2)CC1 | 0.03 |
| CNCc1cc(-c2ccccc2F)n(S(=O)(=O)c2cccnc2)c1 | 0.14 |
| Cc1cc(C=CC#N)cc(C)c1Nc1ccnc(Nc2ccc(C#N)cc2)n1 | 0.3 |
| CCCCC1(CCCC)CN(c2ccccc2)c2cc(SC)c(OCC(=O)NC(C(=O)NC(CC)C(=O)O)c3ccc(O)cc3)cc2S(=O)(=O)N1 (configuration not stated) | 0.01 |
| C=C/C=C/C[C@@H](C)[C@@H](O)C1C(=O)NC(CC)C(=O)N(C)CC(=O)N(C)C(CC(C)C)C(=O)NC(C(C)C)C(=O)N(C)C(CC(C)C)C(=O)NC(C)C(=O)NC(C)C(=O)N(C)C(CC(C)C)C(=O)N(C)C(CC(C)C)C(=O)N(C)C(C(C)C)C(=O)N1C (some centres not stated) | 0.03 |
